{
  "source": "patent US20260284208A1",
  "about": "“SYSTEM” (Oxford University Innovation Limited, priority 2023, published 2026)",
  "tested_on": "library of 8,380 IKZF3 degrons (ZF-eGFP/mCherry reporter) in Jurkat cells",
  "test": "Pooled library screen (FACS, NGS, limma voom LogFC of positive vs negative read counts)",
  "format": "cell-based, human",
  "how_it_was_run": "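Cells were lentivirally transduced at MOI <0.3, and mCherry+ cells were sorted 6 days later. Eight days after sorting, cells were treated with DMSO or thalidomide analog for 18 h at 37 °C. mCherry+GFPlow (DMSO-set gate, DAPI-excluded) and remaining cells were sorted, and degrons were PCR-amplified from gDNA and sequenced (>600× coverage, 3 biological replicates).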",
  "data": [
    {"smiles": "CN1CCN(c2ccc3c(c2)C(=O)N(C2CCC(=O)NC2=O)C3=O)CC1", "note": "(stereo not drawn) [B08, 2-(2,6-dioxopiperidin-3-yl)-5-(4-methylpiperazin-1-yl)isoindoline-1,3-dione]", "values": [
      {"measurement": "B08_logFC", "setting": "Degron-ID 115, SEQ ID NO 2354, 46F_47A_49E_50V_52G_53A_54S_55F_67L", "value": 2.665},
      {"measurement": "B08_logFC", "setting": "Degron-ID 312, SEQ ID NO 2356, 46F_47C_49E_50I_52G_53A_54P_55F_67L", "value": 2.662},
      {"measurement": "B08_logFC", "setting": "Degron-ID 313, SEQ ID NO 2359, 46F_47C_49E_50I_52G_53A_54Q_55F_67L", "value": 2.659},
      {"measurement": "B08_logFC", "setting": "Degron-ID 316, SEQ ID NO 2364, 46F_47C_49E_50I_52G_53A_54T_55F_67L", "value": 2.641},
      {"measurement": "B08_logFC", "setting": "Degron-ID 355, SEQ ID NO 2334, 46F_47C_49E_50V_52G_53A_54S_55F_67L", "value": 2.718},
      {"measurement": "B08_logFC", "setting": "Degron-ID 432, SEQ ID NO 2346, 46F_47C_49P_50I_52G_53A_54P_55F_67L", "value": 2.683},
      {"measurement": "B08_logFC", "setting": "Degron-ID 480, SEQ ID NO 2273, 46F_47D_49D_50I_52G_53A_54A_55F_67L", "value": 2.887},
      {"measurement": "B08_logFC", "setting": "Degron-ID 495, SEQ ID NO 2327, 46F_47D_49D_50I_52G_53A_54S_55F_67L", "value": 2.748},
      {"measurement": "B08_logFC", "setting": "Degron-ID 556, SEQ ID NO 2290, 46F_47D_49E_50I_52G_53A_54T_55F_67L", "value": 2.821},
      {"measurement": "B08_logFC", "setting": "Degron-ID 557, SEQ ID NO 2336, 46F_47D_49E_50I_52G_53A_54V_55F_67L", "value": 2.714},
      {"measurement": "B08_logFC", "setting": "Degron-ID 591, SEQ ID NO 2348, 46F_47D_49E_50V_52G_53A_54N_55F_67L", "value": 2.678},
      {"measurement": "B08_logFC", "setting": "Degron-ID 593, SEQ ID NO 2355, 46F_47D_49E_50V_52G_53A_54Q_55F_67L", "value": 2.664},
      {"measurement": "B08_logFC", "setting": "Degron-ID 600, SEQ ID NO 2284, 46F_47D_49N_50I_52G_53A_54A_55F_67L", "value": 2.845},
      {"measurement": "B08_logFC", "setting": "Degron-ID 825, SEQ ID NO 2282, 46F_47E_49E_50V_52G_53A_54G_55F_67L", "value": 2.853},
      {"measurement": "B08_logFC", "setting": "Degron-ID 852, SEQ ID NO 2326, 46F_47E_49N_50I_52G_53A_54P_55F_67L", "value": 2.749},
      {"measurement": "B08_logFC", "setting": "Degron-ID 966, SEQ ID NO 2283, 46F_47F_49D_50I_52G_53A_54H_55F_67L", "value": 2.85},
      {"measurement": "B08_logFC", "setting": "Degron-ID 1014, SEQ ID NO 2319, 46F_47F_49D_50V_52G_53A_54R_55F_67L", "value": 2.759},
      {"measurement": "B08_logFC", "setting": "Degron-ID 1079, SEQ ID NO 2329, 46F_47F_49E_50V_52G_53A_54Y_55F_67L", "value": 2.743},
      {"measurement": "B08_logFC", "setting": "Degron-ID 1091, SEQ ID NO 2265, 46F_47F_49N_50I_52G_53A_54N_55F_67L", "value": 2.903},
      {"measurement": "B08_logFC", "setting": "Degron-ID 1095, SEQ ID NO 2275, 46F_47F_49N_50I_52G_53A_54S_55F_67L", "value": 2.882},
      {"measurement": "B08_logFC", "setting": "Degron-ID 1096, SEQ ID NO 2340, 46F_47F_49N_50I_52G_53A_54T_55F_67L", "value": 2.704},
      {"measurement": "B08_logFC", "setting": "Degron-ID 1146, SEQ ID NO 2305, 46F_47F_49P_50I_52G_53A_54H_55F_67L", "value": 2.792},
      {"measurement": "B08_logFC", "setting": "Degron-ID 1147, SEQ ID NO 2343, 46F_47F_49P_50I_52G_53A_54I_55F_67L", "value": 2.701},
      {"measurement": "B08_logFC", "setting": "Degron-ID 1149, SEQ ID NO 2361, 46F_47F_49P_50I_52G_53A_54L_55F_67L", "value": 2.65},
      {"measurement": "B08_logFC", "setting": "Degron-ID 1154, SEQ ID NO 2333, 46F_47F_49P_50I_52G_53A_54R_55F_67L", "value": 2.724},
      {"measurement": "B08_logFC", "setting": "Degron-ID 1159, SEQ ID NO 2293, 46F_47F_49P_50I_52G_53A_54Y_55F_67L", "value": 2.817},
      {"measurement": "B08_logFC", "setting": "Degron-ID 1186, SEQ ID NO 2321, 46F_47F_49P_50V_52G_53A_54H_55F_67L", "value": 2.754},
      {"measurement": "B08_logFC", "setting": "Degron-ID 1192, SEQ ID NO 2303, 46F_47F_49P_50V_52G_53A_54P_55F_67L", "value": 2.797},
      {"measurement": "B08_logFC", "setting": "Degron-ID 1440, SEQ ID NO 2337, 46F_47H_49D_50I_52G_53A_54A_55F_67L", "value": 2.712},
      {"measurement": "B08_logFC", "setting": "Degron-ID 1541, SEQ ID NO 2267, 46F_47H_49E_50V_52G_53A_54C_55F_67L", "value": 2.901},
      {"measurement": "B08_logFC", "setting": "Degron-ID 1552, SEQ ID NO 2268, 46F_47H_49E_50V_52G_53A_54P_55F_67L", "value": 2.901},
      {"measurement": "B08_logFC", "setting": "Degron-ID 1572, SEQ ID NO 2307, 46F_47H_49N_50I_52G_53A_54P_55F_67L", "value": 2.781},
      {"measurement": "B08_logFC", "setting": "Degron-ID 1575, SEQ ID NO 2324, 46F_47H_49N_50I_52G_53A_54S_55F_67L", "value": 2.75},
      {"measurement": "B08_logFC", "setting": "Degron-ID 1635, SEQ ID NO 2315, 46F_47H_49P_50I_52G_53A_54S_55F_67L", "value": 2.766},
      {"measurement": "B08_logFC", "setting": "Degron-ID 1660, SEQ ID NO 2328, 46F_47H_49P_50V_52G_53A_54A_55F_67L", "value": 2.746},
      {"measurement": "B08_logFC", "setting": "Degron-ID 1673, SEQ ID NO 2281, 46F_47H_49P_50V_52G_53A_54Q_55F_67L", "value": 2.855},
      {"measurement": "B08_logFC", "setting": "Degron-ID 1812, SEQ ID NO 2277, 46F_47I_49N_50I_52G_53A_54P_55F_67L", "value": 2.872},
      {"measurement": "B08_logFC", "setting": "Degron-ID 2412, SEQ ID NO 2342, 46F_47M_49D_50I_52G_53A_54P_55F_67L", "value": 2.702},
      {"measurement": "B08_logFC", "setting": "Degron-ID 2832, SEQ ID NO 2294, 46F_47N_49P_50I_52G_53A_54P_55F_67L", "value": 2.815},
      {"measurement": "B08_logFC", "setting": "Degron-ID 2940, SEQ ID NO 2314, 46F_47Q_49E_50I_52G_53A_54A_55F_67L", "value": 2.768},
      {"measurement": "B08_logFC", "setting": "Degron-ID 2955, SEQ ID NO 2358, 46F_47Q_49E_50I_52G_53A_54S_55F_67L", "value": 2.66},
      {"measurement": "B08_logFC", "setting": "Degron-ID 2957, SEQ ID NO 2350, 46F_47Q_49E_50I_52G_53A_54V_55F_67L", "value": 2.675},
      {"measurement": "B08_logFC", "setting": "Degron-ID 2987, SEQ ID NO 2341, 46F_47Q_49E_50V_52G_53A_54I_55F_67L", "value": 2.703},
      {"measurement": "B08_logFC", "setting": "Degron-ID 3012, SEQ ID NO 2271, 46F_47Q_49N_50I_52G_53A_54P_55F_67L", "value": 2.893},
      {"measurement": "B08_logFC", "setting": "Degron-ID 3100, SEQ ID NO 2338, 46F_47Q_49P_50V_52G_53A_54A_55F_67L", "value": 2.707},
      {"measurement": "B08_logFC", "setting": "Degron-ID 3172, SEQ ID NO 2291, 46F_47R_49D_50V_52G_53A_54P_55F_67L", "value": 2.82},
      {"measurement": "B08_logFC", "setting": "Degron-ID 3252, SEQ ID NO 2349, 46F_47R_49N_50I_52G_53A_54P_55F_67L", "value": 2.676},
      {"measurement": "B08_logFC", "setting": "Degron-ID 3360, SEQ ID NO 2289, 46F_47S_49D_50I_52G_53A_54A_55F_67L", "value": 2.823},
      {"measurement": "B08_logFC", "setting": "Degron-ID 3421, SEQ ID NO 2287, 46F_47S_49E_50I_52G_53A_54C_55F_67L", "value": 2.828},
      {"measurement": "B08_logFC", "setting": "Degron-ID 3433, SEQ ID NO 2323, 46F_47S_49E_50I_52G_53A_54Q_55F_67L", "value": 2.75},
      {"measurement": "B08_logFC", "setting": "Degron-ID 3435, SEQ ID NO 2286, 46F_47S_49E_50I_52G_53A_54S_55F_67L", "value": 2.841}
    ]}
  ]
}
